TGI data for 13 compounds are collected here from PubChem BioAssay (NCI).

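Tested at 5 concentrations; 48 h exposure; 96-well plates; endpoints linearly interpolated, else capped at highest concentration. TGI marks complete inhibition of growth.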 Where a SMILES comes first, the peptide text is derived from it. The star is where a group is joined. Boc = CC(C)(C)OC(=O)*; OBn = c1ccc(CO*)cc1

Some test systems named below: M14 melanoma; OVCAR-4 ovarian; CAKI-1 renal; SF-268 CNS; HOP-62 NSCLC; SW-620 colon; RPMI-8226 leukemia; K-562 leukemia; UO-31 renal; A549 NSCLC.
Common to all, as to assay: DTP human tumour cell line panel, 48 h

As for `O=C(NCc1ccc(Cl)cc1)c1cc2sccc2nc1C(F)(F)F`, the TGI is above 100 µM with M14 melanoma; 44.8 µM with OVCAR-4 ovarian; above 100 µM in the experiment with CAKI-1 renal; 66.9 µM in the experiment with SF-268 CNS; 56.2 µM in the experiment with HOP-62 NSCLC; above 100 µM in the experiment on SW-620 colon. Besides, the TGI in the experiment on RPMI-8226 leukemia, with K-562 leukemia, in the experiment on UO-31 renal and in the experiment on A549 NSCLC was above 100 µM each time.

Consider `CC(C)(C)OC[C@H](O)CC#N`, for which the TGI with M14 melanoma, in the experiment with OVCAR-4 ovarian, in the experiment on CAKI-1 renal, with SF-268 CNS, in the experiment with HOP-62 NSCLC and with SW-620 colon was above 100 µM throughout. The TGI with RPMI-8226 leukemia, in the experiment on K-562 leukemia, in the experiment with UO-31 renal and in the experiment on A549 NSCLC was above 100 µM each time.

Consider `S=C(S)NCC1CCC(CNC(=S)S)CC1` (stereo not drawn), for which the TGI in the experiment on M14 melanoma was above 100 µM; in the experiment on OVCAR-4 ovarian, above 100 µM; in the experiment on CAKI-1 renal, 30.6 µM; in the experiment on SF-268 CNS, above 100 µM; in the experiment on HOP-62 NSCLC, 42.9 µM; in the experiment with SW-620 colon, above 100 µM. The TGI in the experiment on RPMI-8226 leukemia was above 100 µM; in the experiment with K-562 leukemia it was above 100 µM; with UO-31 renal it was 47.5 µM; with A549 NSCLC it was above 100 µM.

Regarding `Cc1ccc(N=Nc2c(C)c(C#N)c(=S)n(C3OC(CO)C(O)C(O)C3O)c2-c2ccccc2)cc1` (stereo not drawn), the TGI in the experiment on M14 melanoma was 30.4 µM; with OVCAR-4 ovarian, above 100 µM; with CAKI-1 renal, 92.6 µM; in the experiment with SF-268 CNS it was 68 µM; in the experiment with HOP-62 NSCLC, 54.2 µM; with SW-620 colon, 36.3 µM. Also, the TGI with RPMI-8226 leukemia is above 100 µM; in the experiment with K-562 leukemia it was 83.3 µM; with UO-31 renal, 86.9 µM; with A549 NSCLC, above 100 µM.

Consider `C[C@]12CC[C@@H]3c4ccc(OC(=O)c5ccccc5)cc4CC[C@H]3[C@@H]1CC[C@@H]2Oc1c2ccccc2nc2ccccc12`, for which the TGI is 15.9 µM with M14 melanoma; above 50 µM in the experiment with OVCAR-4 ovarian; 21.6 µM in the experiment on CAKI-1 renal; 20.8 µM with SF-268 CNS; 15.7 µM in the experiment on HOP-62 NSCLC; above 50 µM in the experiment on SW-620 colon. For the same compound, the TGI was 18.1 µM in the experiment on RPMI-8226 leukemia, 17.8 µM with K-562 leukemia, above 50 µM in the experiment on UO-31 renal and 13.2 µM in the experiment with A549 NSCLC.

As for `CC(=O)OCC=C(CCl)CCC(Br)C(C)(C)Br` (mixture of isomers), the TGI with M14 melanoma, with OVCAR-4 ovarian, in the experiment on CAKI-1 renal, with SF-268 CNS, in the experiment with HOP-62 NSCLC and with SW-620 colon was above 10 µM in each case. Further, the TGI with RPMI-8226 leukemia, with K-562 leukemia, in the experiment on UO-31 renal and in the experiment with A549 NSCLC was above 10 µM throughout.

`C=C(C)C1CC=C(C)C2(C1)OCC(C)(C)C(C)O2` (stereo not drawn): the TGI worked out at 47.1 µM in the experiment on M14 melanoma; 41.1 µM in the experiment on OVCAR-4 ovarian; 36.7 µM with CAKI-1 renal; 70.9 µM in the experiment on SF-268 CNS; 31.8 µM in the experiment with HOP-62 NSCLC; 43.2 µM in the experiment on SW-620 colon. The TGI in the experiment on RPMI-8226 leukemia turned out to be 43.2 µM; with K-562 leukemia, 45.8 µM; with UO-31 renal, 40.8 µM; in the experiment with A549 NSCLC, 34.5 µM.

On to `CC(=Nc1ccncc1)C(C)=Nc1ccncc1`, for which the TGI with M14 melanoma was 34.8 µM; with OVCAR-4 ovarian, 27.4 µM; in the experiment with CAKI-1 renal it was 30.4 µM; in the experiment with SF-268 CNS, above 100 µM; in the experiment on HOP-62 NSCLC it was 49.4 µM; in the experiment on SW-620 colon it was above 100 µM. Besides, the TGI was 45 µM with RPMI-8226 leukemia, above 100 µM in the experiment on K-562 leukemia, 30.8 µM in the experiment with UO-31 renal and above 100 µM in the experiment on A549 NSCLC.

As to `Clc1ccc(N=c2oc3ccccc3cc2-c2nc3ccccc3[nH]2)c(Cl)c1`, the TGI was above 100 µM in the experiment on M14 melanoma; above 100 µM with OVCAR-4 ovarian; above 100 µM in the experiment with CAKI-1 renal; 89.1 µM in the experiment with SF-268 CNS; 65.1 µM in the experiment on HOP-62 NSCLC; above 100 µM in the experiment on SW-620 colon. For the same compound, the TGI in the experiment on RPMI-8226 leukemia, with K-562 leukemia and with UO-31 renal was above 100 µM in each case.

For the compound `NC(N)=NS(=O)(=O)c1ccc(NC(=O)c2ccc3nc4ccccc4c(Nc4ccc(S(N)(=O)=O)cc4)c3c2)cc1`, the TGI with M14 melanoma, in the experiment on OVCAR-4 ovarian, with CAKI-1 renal, in the experiment with SF-268 CNS, with HOP-62 NSCLC and with SW-620 colon was above 100 µM throughout. The TGI with RPMI-8226 leukemia, in the experiment on K-562 leukemia, in the experiment on UO-31 renal and with A549 NSCLC was above 100 µM in each case.

For the compound `O=c1[nH]c(Nc2cccc(Cl)c2)nc2nc[nH]c12`, the TGI in the experiment on M14 melanoma, with OVCAR-4 ovarian, in the experiment on CAKI-1 renal, in the experiment on SF-268 CNS, with HOP-62 NSCLC and in the experiment with SW-620 colon was above 100 µM each time. For the same compound, the TGI in the experiment on RPMI-8226 leukemia, in the experiment on K-562 leukemia, with UO-31 renal and with A549 NSCLC was above 100 µM in each case.

Take `COc1cc(S(=O)(=O)Nc2ccc(-c3csc(N4C(=O)CSC4c4ccccc4)n3)cc2)ccc1Cl` (stereo not drawn): the concentration for total growth inhibition (TGI) with M14 melanoma, in the experiment on OVCAR-4 ovarian, in the experiment with CAKI-1 renal, with SF-268 CNS, in the experiment on HOP-62 NSCLC and with SW-620 colon was above 100 µM each time. The TGI in the experiment on RPMI-8226 leukemia is 89.3 µM; in the experiment on K-562 leukemia it was above 100 µM; in the experiment with UO-31 renal, above 100 µM; in the experiment on A549 NSCLC it was above 100 µM.

`CC(C)(C)OC(=O)NC(Cc1ccccc1)C(=O)NC(Cc1ccccc1)C(=O)NCC(=O)OCc1ccccc1` (stereo not drawn) (Boc-Phe-Phe-Gly-OBn; configuration not given here): the TGI in the experiment with M14 melanoma was 62.7 µM; with OVCAR-4 ovarian, above 100 µM; with CAKI-1 renal, above 100 µM; in the experiment on SF-268 CNS, 29.4 µM; in the experiment with HOP-62 NSCLC, 91.7 µM; in the experiment on SW-620 colon, 28.4 µM. Besides, the values for the TGI in the experiment with RPMI-8226 leukemia, in the experiment on K-562 leukemia and with UO-31 renal were 39.6 µM, 31.4 µM and above 100 µM, respectively.
